Several values for one entry are separate records, joined by “and”; a condition that tells them apart may be missing. Equal values may be shown once.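 Exposure lasted 48 hours, with cells grown in 96-well plates and compounds tested at five concentrations. At the GI50, growth is halved. The concentration for full growth arrest is given as TGI.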
How the values were obtained:
Experiment in all cases: NCI tumour cell line growth inhibition, 48 h
HOP-62 NSCLC = tested on: HOP-62 NSCLC
OVCAR-4 ovarian = tested on: OVCAR-4 ovarian
SK-MEL-2 melanoma = tested on: SK-MEL-2 melanoma
MDA-MB-231 breast = tested on: MDA-MB-231 breast
NCI-H23 lung = tested on: NCI-H23 lung
RXF 393 renal = tested on: RXF 393 renal
NCI-H460 lung = tested on: NCI-H460 lung
MCF7 breast = tested on: MCF7 breast
OVCAR-3 ovarian = tested on: OVCAR-3 ovarian
SF-268 CNS = tested on: SF-268 CNS

| Structure (SMILES) | TGI (HOP-62 NSCLC) | TGI (OVCAR-4 ovarian) | TGI (SK-MEL-2 melanoma) | TGI (MDA-MB-231 breast) | TGI (NCI-H23 lung) | TGI (RXF 393 renal) | TGI (NCI-H460 lung) | TGI (MCF7 breast) | TGI (OVCAR-3 ovarian) | TGI (SF-268 CNS) | GI50 (HOP-62 NSCLC) | GI50 (OVCAR-4 ovarian) | GI50 (SK-MEL-2 melanoma) | GI50 (MDA-MB-231 breast) | GI50 (NCI-H23 lung) | GI50 (RXF 393 renal) | GI50 (NCI-H460 lung) | GI50 (MCF7 breast) | GI50 (OVCAR-3 ovarian) | GI50 (SF-268 CNS) |
| --- | --- | --- | --- | --- | --- | --- | --- | --- | --- | --- | --- | --- | --- | --- | --- | --- | --- | --- | --- | --- |
| C=C1C(=O)OC2CC(C)C(/C=C/C(C)=O)=CCC12 (centres undefined) | > 100 µM | > 100 µM | > 100 µM | > 100 µM | > 100 µM | > 100 µM | > 100 µM | > 100 µM | > 100 µM | > 100 µM |  |  |  |  |  |  |  |  |  |  |
| Cc1cc(NC(=O)NCc2ccc(N3C(N)=NC(N)=NC3(C)C)cc2)ccc1S(=O)(=O)F | > 100 µM | > 100 µM | > 100 µM | > 100 µM | > 100 µM | > 100 µM | > 75.6 µM | > 100 µM | > 81.9 µM | > 88 µM | 12.8 µM | 9.31 µM | 45 µM | > 62.2 µM | 4.29 µM | 51.2 µM | 0.252 µM | 1.93 µM | 8.4 µM | 0.682 µM |
| CC(C)=C[C@@H]1C[C@H](C)[C@H]2CC[C@H](C)c3c(O)c(OC4OC(C)C(O)C(O)C4O)c(C)c1c32 (some centres undefined) | 34.7 µM | 24.7 µM | 35.5 µM | 26.6 µM | 20 µM | 23.2 µM | 21.2 µM | 27.7 µM | 8.43 µM | 31.3 µM | 19.2 µM | 12.1 µM | 19.8 µM | 13.2 µM | 2.21 µM | 11 µM | 7.83 µM | 13.9 µM | 1.93 µM | 16 µM |
| NNc1c(C(N)=O)c2c(N)ncnc2n1C1OC(CO)C(O)C1O (centres undefined) |  | 0.776 µM and 0.16 µM | 0.0946 µM and 0.307 µM | 0.491 µM and 2.23 µM | 0.266 µM and 0.319 µM | 0.186 µM and 0.125 µM | 0.673 µM and 4.45 µM | 0.179 µM and 1.29 µM | 0.4 µM and 0.335 µM | 1.05 µM and 1.22 µM | 0.124 µM | < 0.0105 µM | 0.0273 µM and 0.0256 µM | 0.086 µM | 0.0268 µM and 0.0507 µM | 0.0254 µM and < 0.0143 µM | 0.0197 µM and 0.14 µM | 0.0729 µM | 0.0176 µM and 0.0219 µM | 0.0451 µM and 0.0928 µM |
| CC[C@H](C)[C@H](NC(=O)C12C3C4C1C1C2C3C41NC)C(=O)N(C)[C@H](C[C@@H](OC(C)=O)c1nc(C(=O)N[C@@H](Cc2ccccc2)C[C@H](C)C(=O)OC)cs1)C(C)C (some centres undefined) | > 11.7 µM | > 14.3 µM | > 14.3 µM | > 13 µM | > 14.3 µM | > 14.3 µM | > 14.3 µM | > 14.3 µM | 1.02 µM | > 14.3 µM | 1.18 µM | 1.75 µM | 0.223 µM | 0.798 µM | 0.705 µM | 0.413 µM | 0.617 µM | 0.0552 µM | 0.0872 µM | 1.3 µM |
| COc1cccc(/C=C2\N=C(c3ccccc3)OC2=O)c1 | > 100 µM | > 100 µM | > 100 µM | > 100 µM | > 100 µM | > 100 µM | > 100 µM | > 100 µM | > 100 µM | > 100 µM |  |  |  |  |  |  |  |  |  |  |
| Cc1cc(N2CCC(N3CCCC3)CC2)nc(/N=C(\N)Nc2ccc(Cl)c(Cl)c2)n1 | 3.8 µM | 3.99 µM | 3.85 µM | 3.64 µM | 6.61 µM | 3.09 µM | 3.67 µM | 2.69 µM | 3.26 µM | 6.66 µM | 1.81 µM | 2.02 µM | 2.11 µM | 1.67 µM | 2.12 µM | 1.62 µM | 1.89 µM | 1.29 µM | 1.72 µM | 2.34 µM |
| CCn1c(-c2nonc2N)nc2ccccc21 | > 25 µM | > 25 µM | > 25 µM | > 25 µM | > 25 µM | > 25 µM | > 25 µM | > 25 µM | > 25 µM | > 25 µM | > 25 µM | > 25 µM | > 25 µM | > 25 µM | > 25 µM | 16.7 µM | > 25 µM | > 25 µM | > 25 µM | > 25 µM |
| O=[N+]([O-])c1ccccc1N=Nc1c(O)[nH]c2c(Cl)cccc12 | 40.9 µM | 24.8 µM | > 100 µM | 23.4 µM | > 71.3 µM | 98.1 µM | 38.4 µM | > 89.6 µM | > 85.3 µM | 59.8 µM |  |  |  |  |  |  |  |  |  |  |
| O=C1/C(=C/c2ccc(Cl)cc2)CCC1CNc1ccc(Cl)cc1 (centres undefined) | 56.1 µM | 54.5 µM | 58.5 µM | 20.5 µM | 55.1 µM | 26.4 µM | > 100 µM | 10.8 µM | 21.5 µM | 40.6 µM |  |  |  |  |  |  |  |  |  |  |
| Fc1ccccc1CN1COc2c(cc(Cl)c3cccnc23)C1 | 16.6 µM | 4.88 µM | 19.1 µM | 4.3 µM | 9.31 µM | 63.6 µM | > 100 µM | 13.7 µM | 19.2 µM | 20.3 µM |  |  |  |  |  |  |  |  |  |  |
| Cn1cc(-c2cc(-c3cn(C)c4ccccc34)[nH]n2)c2ccccc21 | 60 µM | > 100 µM | > 100 µM | > 100 µM | > 100 µM | 38.7 µM | > 100 µM | > 100 µM | > 100 µM | > 100 µM | 17.3 µM | 34.9 µM | 57.5 µM | 8.06 µM | 22 µM | 14.7 µM | 4.48 µM | 3.95 µM | 28.4 µM | 16 µM |
| CCN(CC)c1ccc(/C=N/NC(=O)Cc2ccc(Nc3ccnc(C(F)(F)F)c3)cc2)c(O)c1 | > 100 µM | > 100 µM | > 100 µM | > 100 µM | > 100 µM | 98.5 µM | > 39.7 µM | > 100 µM | > 100 µM | > 100 µM | 0.566 µM | 0.442 µM | 4.52 µM | 0.842 µM | 1.34 µM | 1.03 µM | 0.351 µM | 0.461 µM | 0.473 µM | 0.455 µM |
| CC(=O)c1cc2c(N)c(C(=O)Nc3cccc4ccccc34)sc2nc1C | 27.4 µM | > 50 µM | > 50 µM | > 50 µM | > 50 µM | 3.46 µM | > 50 µM | > 50 µM | 11.4 µM | > 50 µM | 1.67 µM | 6.06 µM | 4.22 µM | 3.41 µM | 2.14 µM | 0.891 µM | 1.61 µM | 1.42 µM | 1.67 µM | 4.34 µM |
